Reference: patent US12478081B2, “Application of aspartic acid derivative in preparing animal feed additive” (ANIPHA TECHNOLOGIES PTY LTD, priority 2018, dated 2025)
Marks after values point to notes of the source that are not given here.

What was measured:
broilers = assay: Breeding test: production performance of broilers; format: in vivo, yellow-feathered broilers; conditions: for effect on the average daily gain of the test broilers (in words): 300 ppm, compared with the control group; for ADFI (g/d*each broiler) / ADG (g/d*each broiler) / FCR: broilers, 300 ppm in basal daily ration, 20 days
Description: The test adopted a single-factor random design. 420 1-day-old yellow-feathered broilers with similar body weights and having an average weight of 50 g were selected and randomly divided into 7 treatment groups, with 3 replications per group and 20 yellow-feathered broilers (half of male and female) per replication. The poultry houses and utensils were sterilized before the test. During the test period, the Jingbai laying hens were cage cultured in the same laying henhouse under the same feeding and management conditions. The basal daily ration was mainly corn-soybean meal, and no other antioxidant ingredients or growth promoters were added additionally during the entire feeding process. The test groups include a control group and test groups I-VII. The basal daily ration was fed for the control group I only, and 300 ppm of different aspartic acid derivatives were added into the basal daily ration for the test groups II-VII, as shown in Table 5. The test period was 20 days. The test yellow-feathered broilers were free to drink water and eat feed, and were fed twice a day. Taking each repetition as a unit, the test broilers were weighed at the age of 21 days (where provisioning of feeds was stopped for 12 hours, but provisioning of water was not stopped), the feed consumption of the test broilers were calculated, and the average daily feed intake (ADFI, g/d*each broiler), the average daily gain (ADG, g/d*each broiler) and the feed conversion ratio (FCR) were calculated for the test broilers of each group. Calculation formulas are as follows: […]
(§1) The test data was statistically analyzed using SPSS18 software. First, a one-way analysis of variance (ANOVA) was performed on the data. If the difference between treatments is significant, Duncan's method was used for multiple comparisons, and the significance level was 0.05.

[1] = Thermal stability of compounds at 60° C. (HPLC content of raw material and 2% premix); format: physicochemical; conditions: for Detection result of the content of test sample (%) Day 5: Day 5, relative to Day 0; for Detection result of the content of test sample (%) Day 10: Day 10, relative to Day 0
Procedure: The variations of the contents of the main ingredient of the aspartic acid derivative raw material and the main ingredient of a premix containing 2% mass fraction of the aspartic acid derivative (hereinafter referred to as 2% premix) over time were investigated under the conditions of stability test at 60° C.
Experimental apparatus: drug stability incubator, Waters high-performance liquid chromatograph (HPLC), etc.
Test samples: N-carbamoyl-DL-aspartic acid (compound 1), diethyl N-carbamoyl-DL-aspartate (compound 2), Sodium N-carbamoyl-DL-aspartate (compound 3), Calcium N-carbamoyl-DL-aspartate (compound 4), Zinc N-carbamoyl-DL-aspartate (compound 5), Copper N-carbamoyl-DL-aspartate (compound 6), Iron N-carbamoyl-DL-aspartate (compound 7), N-glycyl-DL-aspartic acid (compound 8), N-(4-aminobutyryl)-DL-aspartic acid (compound 9), N-(10-aminodecanoyl)-DL-aspartic acid (compound 10), N-(14-aminomyristoyl)-DL-aspartic acid (compound 11).
Preparation of standard solution: 50 mg of the test sample raw material was ultrasonically dissolved in 50 mL of water to obtain a working reserve solution. An appropriate amount of the working reserve solution was taken and diluted with water respectively to concentrations of 125 ppm, 250 ppm, 500 ppm, and 1000 ppm for HPLC testing. It was checked whether the sample concentrations are in a linear relationship with the peak area response values in HPLC, and a standard curve was established.
Preparation of test solution: An appropriate amount of the test sample raw material and an appropriate amount of a premix containing 2% mass fraction of the test sample (hereinafter referred to as 2% premix) were separately ultrasonically dissolved in an appropriate amount of water to form a 1000 ppm solution, which is filtered through a 0.22 µm filter membrane and then analyzed by HPLC.
HPLC analysis conditions: chromatographic column: Waters C18 column (250 mm×4.6 mm, 5 μm); mobile phase: 0.05% phosphoric acid:methanol=95:5 (v:v) (raw material); 0.05% phosphoric acid: methanol (gradient elution); methanol: 5%→40% (0-15 min) curve 6, 40%→5% (15-16 min) curve 1, 5% (16-23 min) curve 1, (premix, feed); detection wavelength: 210 nm; column temperature: 25° C.; sample size: 20 μL; flow rate: 1 mL/min.
Test method: The test sample raw material and its 2% premix were placed in a culture plate, spread into a thin layer of <5 mm, and placed at 60° C. Samples were taken on the day 5 and ? day 10 for HPLC detection. Each sample was sampled three times in parallel.

weaned piglets = assay: Breeding test: production performance of weaned piglets; format: in vivo, Duroc×Landrace×Yorkshire cross-bred weaned piglets; conditions: for increase of the average daily gain of the test pigs: compared with the control group, not significant; for ADFI (g/d*each pig) / ADG (g/d*each pig) / FCR: weaned piglets, 45 ppm in basal daily ration, 40 days
Description: From 95 litters of 28±2 days old Duroc×Landrace×Yorkshire cross-bred weaned piglets, 360 clinically healthy piglets with similar body weights were selected as test pigs, which were randomly divided into 12 groups, with 3 replications per group and 10 pigs (half of male and female) per replication. The piglets were attracted to the food trough at the age of 7 days, and the hog house for 28-day-old weaned pigs has a cement floor, steel fence, good ventilation, and suitable temperature. The pigpens and utensils were sterilized before the test.
During the test period, the test pigs were free-stall housed in the same pigpen under the same feeding and management conditions, and were free to drink water and eat feed. The hog house was cleaned once a day, and the floor is washed once every three days to maintain clean and hygienic conditions. The test pigs were fed three times a day. The test groups include control and test groups. Group I is the control group, in which only the basal daily ration was fed to the piglets. […] 1000 ppm of a the aspartic acid derivative metal ion salt was added into the basal daily ration for the piglets in the groups VIII-XII, as shown in Table 2. No other antioxidant ingredients or growth promoters were added for the test groups during the entire feeding process. The test period was 40 days.
The test pigs were weighed during 7:00 to 9:00 in the morning of Day 0 and Day 40 after the start of the test. During the test period, the feed intake and health status of the piglets were observed every day, the remaining daily ration was weighed, the feed consumption was recorded, and the average daily feed intake (ADFI, g/d*each pig), the average daily gain (ADG, g/d*each pig), and the feed conversion ratio (FCR) were calculated. Calculation formulas are as follows: […]
as §1

SMILES	effect on the average daily gain of the test broilers (in words) (broilers)	ADFI (g/d*each broiler) (broilers)	ADG (g/d*each broiler) (broilers)	FCR (broilers)	Detection result of the content of test sample (%) Day 5 ([1]; 2% premix)	Detection result of the content of test sample (%) Day 10 ([1]; 2% premix)	Detection result of the content of test sample (%) Day 5 ([1]; Raw material)	Detection result of the content of test sample (%) Day 10 ([1]; Raw material)	increase of the average daily gain of the test pigs (weaned piglets)	ADFI (g/d*each pig) (weaned piglets)	ADG (g/d*each pig) (weaned piglets)	FCR (weaned piglets)
NC(=O)NC(CC(=O)O)C(=O)O (racemic) [Compound 1, N-carbamoyl-DL-aspartic acid]	the most significant	38.83 ± 0.53 g/d*each broiler	16.59 ± 0.14^b g/d*each broiler	2.34 ± 0.03^b	99.66%	99.70%	99.79%	99.28%	7.0%	315 ± 14^a g/d*each pig	145 ± 10^abc g/d*each pig	2.18 ± 0.05
CCOC(=O)CC(NC(N)=O)C(=O)OCC (racemic) [Compound 2, diethyl N-carbamoyl-DL-aspartate]	the most significant	40.05 ± 0.81^d g/d*each broiler	16.81 ± 0.68^b g/d*each broiler	2.39 ± 0.05^b	98.81%	98.09%	97.32%	96.97%		374 ± 11^b g/d*each pig	176 ± 2^d g/d*each pig	2.13 ± 0.05
NCC(=O)NC(CC(=O)O)C(=O)O (racemic) [Compound 8, N-glycyl-DL-aspartic acid]		36.05 ± 0.83^b g/d*each broiler	14.48 ± 0.24^b g/d*each broiler	2.49 ± 0.03^ab	98.57%	97.32%	99.78%	98.02%	5.2%	305 ± 12^a g/d*each pig	142 ± 1^ab g/d*each pig	2.15 ± 0.07
NCCCC(=O)NC(CC(=O)O)C(=O)O (racemic) [Compound 9, N-(4-aminobutyryl)-DL-aspartic acid]		37.92 ± 0.53^c g/d*each broiler	15.84 ± 0.10^b g/d*each broiler	2.39 ± 0.04^b	99.41%	97.68%	98.46%	98.09%	8.1%	311 ± 18^a g/d*each pig	146 ± 4^abc g/d*each pig	2.13 ± 0.06
NCCCCCCCCCC(=O)NC(CC(=O)O)C(=O)O (racemic) [Compound 10, N-(10-aminodecanoyl)-DL-aspartic acid]		34.82 ± 0.64^a g/d*each broiler	14.40 ± 0.15^b g/d*each broiler	2.42 ± 0.04^b	98.55%	97.81%	99.00%	96.73%		321 ± 7^a g/d*each pig	150 ± 1^bc g/d*each pig	2.14 ± 0.06
NCCCCCCCCCCCCCC(=O)NC(CC(=O)O)C(=O)O (racemic) [Compound 11, N-(14-aminomyristoyl)-DL-aspartic acid]		36.70 ± 0.54^ac g/d*each broiler	15.02 ± 0.13^b g/d*each broiler	2.44 ± 0.04^b	98.22%	97.80%	97.61%	95.93%		322 ± 16^a g/d*each pig	150 ± 4^bc g/d*each pig	2.14 ± 0.05
